Assay results reported in PubChem BioAssay AID252 (DTP/NCI, 2004).
Several values for one entry are separate records, joined by “and”; a condition that tells them apart may be missing. Equal entries are not always repeated. Toxic doses and inconclusive results are not listed.

Tested on: BDF1 mice, intracerebral L1210 leukemia, survival T/C
Test: NCI In Vivo Anticancer Drug Screen. Data for tumor model L1210 Leukemia (intracerebral) in B6D2F1 (BDF1) mice
Settings: higher = longer survival
Procedure, shortened: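 Tumour was transplanted, animals received compound or vehicle, then survival in each group was measured and treated divided by control.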

[1] = endpoint: mean survival time, dose: 400.0 mg/kg/injection, schedule: Q01DX001 (ip), vehicle: carboxymethylcellulose (CMC)

## O=NN(CCCl)C(=O)Nc1ccc(NC(=O)N(CCCl)N=O)cc1
endpoint: mean survival time, dose: 44.0 mg/kg/injection, schedule: Q01DX009 (ip), vehicle: carboxymethylcellulose (CMC)
  T/C: 186 % of control
endpoint: mean survival time, dose: 67.0 mg/kg/injection, schedule: Q01DX009 (ip), vehicle: carboxymethylcellulose (CMC)
  T/C: 181 % of control
endpoint: mean survival time, dose: 100.0 mg/kg/injection, schedule: Q01DX009 (ip), vehicle: carboxymethylcellulose (CMC)
  T/C: 160 % of control
endpoint: mean survival time, dose: 109.0 mg/kg/injection, schedule: Q01DX001 (ip), vehicle: carboxymethylcellulose (CMC)
  T/C: 119 % of control and 124 % of control
endpoint: mean survival time, dose: 225.0 mg/kg/injection, schedule: Q01DX009 (ip), vehicle: carboxymethylcellulose (CMC)
  T/C: 94 % of control
endpoint: mean survival time, dose: 264.0 mg/kg/injection, schedule: Q01DX001 (ip), vehicle: carboxymethylcellulose (CMC)
  T/C: 168 % of control
endpoint: mean survival time, dose: 366.0 mg/kg/injection, schedule: Q01DX001 (ip), vehicle: carboxymethylcellulose (CMC)
  T/C: 168 % of control and 182 % of control
[1]
  T/C: 181 % of control
endpoint: mean survival time, dose: 550.0 mg/kg/injection, schedule: Q01DX001 (ip), vehicle: carboxymethylcellulose (CMC)
  T/C: 155 % of control and 167 % of control
endpoint: mean survival time, dose: 600.0 mg/kg/injection, schedule: Q01DX001 (ip), vehicle: carboxymethylcellulose (CMC)
  T/C: 172 % of control
endpoint: mean survival time, dose: 900.0 mg/kg/injection, schedule: Q01DX001 (ip), vehicle: carboxymethylcellulose (CMC)
  T/C: 190 % of control
endpoint: mean survival time, dose: 1350.0 mg/kg/injection, schedule: Q01DX001 (ip), vehicle: carboxymethylcellulose (CMC)
  T/C: 173 % of control

## CN(N=O)C(=O)NCCSc1ncnc2nc[nH]c12
[1]
  T/C: 113 % of control
endpoint: mean survival time, dose: 500.0 mg/kg/injection, schedule: Q01DX001 (ip), vehicle: carboxymethylcellulose (CMC)
  T/C: 121 % of control

## CCN(N=O)C(N)=O
endpoint: mean survival time, dose: 67.0 mg/kg/injection, schedule: Q01DX001 (ip), vehicle: carboxymethylcellulose (CMC)
  T/C: 97 % of control
endpoint: mean survival time, dose: 100.0 mg/kg/injection, schedule: Q01DX001 (ip), vehicle: carboxymethylcellulose (CMC)
  T/C: 105 % of control
endpoint: mean survival time, dose: 150.0 mg/kg/injection, schedule: Q01DX001 (ip), vehicle: carboxymethylcellulose (CMC)
  T/C: 104 % of control

## NC(Cc1ccc(N(CCCl)CCCl)cc1)C(=O)O (stereo not drawn)
endpoint: mean survival time, dose: 8.0 mg/kg/injection, schedule: Q01DX001 (ip), vehicle: carboxymethylcellulose (CMC)
  T/C: 119 % of control
endpoint: mean survival time, dose: 12.0 mg/kg/injection, schedule: Q01DX001 (ip), vehicle: carboxymethylcellulose (CMC)
  T/C: 117 % of control

## CS(=O)(=O)Nc1ccc(Nc2c3ccccc3nc3cc(Cl)ccc23)cc1
endpoint: mean survival time, dose: 10.0 mg/kg/injection, schedule: Q01DX009 (ip), vehicle: saline
  T/C: 99 % of control
endpoint: mean survival time, dose: 10.0 mg/kg/injection, schedule: Q01DX009 (sc), vehicle: saline
  T/C: 99 % of control
endpoint: mean survival time, dose: 20.0 mg/kg/injection, schedule: Q01DX009 (ip), vehicle: saline
  T/C: 98 % of control
endpoint: mean survival time, dose: 20.0 mg/kg/injection, schedule: Q01DX009 (sc), vehicle: saline
  T/C: 102 % of control
endpoint: mean survival time, dose: 40.0 mg/kg/injection, schedule: Q01DX009 (ip), vehicle: saline
  T/C: 106 % of control
endpoint: mean survival time, dose: 40.0 mg/kg/injection, schedule: Q01DX009 (sc), vehicle: saline
  T/C: 114 % of control
endpoint: mean survival time, dose: 80.0 mg/kg/injection, schedule: Q01DX009 (ip), vehicle: saline
  T/C: 91 % of control
endpoint: mean survival time, dose: 80.0 mg/kg/injection, schedule: Q01DX009 (sc), vehicle: saline
  T/C: 114 % of control

## CNC(=N)c1ccc(NC(=N)c2ccc(NC(=O)Nc3cccc(NC(=O)Nc4ccc(C(=N)Nc5ccc(C(=N)NC)cc5)cc4)c3)cc2)cc1
endpoint: mean survival time, dose: 50.0 mg/kg/injection, schedule: Q01DX001 (ip), vehicle: water
  T/C: 106 % of control
endpoint: mean survival time, dose: 75.0 mg/kg/injection, schedule: Q01DX001 (ip), vehicle: water
  T/C: 109 % of control

## O=NN(CCCl)C(=O)NC1CCS(=O)(=O)C1 (stereo not drawn) (tested in a mixture with another compound)
endpoint: mean survival time, dose: 14.0 mg/kg/injection, schedule: Q01DX001 (oral), vehicle: other
  T/C: 172 % of control
endpoint: mean survival time, dose: 16.0 mg/kg/injection, schedule: Q01DX001 (ip), vehicle: other
  T/C: 156 % of control
endpoint: mean survival time, dose: 22.0 mg/kg/injection, schedule: Q01DX001 (oral), vehicle: other
  T/C: 217 % of control
endpoint: mean survival time, dose: 36.0 mg/kg/injection, schedule: Q01DX001 (ip), vehicle: other
  T/C: 121 % of control
endpoint: mean survival time, dose: 48.0 mg/kg/injection, schedule: Q01DX001 (oral), vehicle: other
  T/C: 116 % of control

## CS(=O)(=O)CCN(N=O)C(=N)N[N+](=O)[O-]
endpoint: mean survival time, dose: 12.0 mg/kg/injection, schedule: Q01DX Z (ip), vehicle: carboxymethylcellulose (CMC)
  T/C: 97 % of control
endpoint: mean survival time, dose: 24.0 mg/kg/injection, schedule: Q01DX Z (ip), vehicle: carboxymethylcellulose (CMC)
  T/C: 100 % of control
endpoint: mean survival time, dose: 48.0 mg/kg/injection, schedule: Q01DX Z (ip), vehicle: carboxymethylcellulose (CMC)
  T/C: 109 % of control
endpoint: mean survival time, dose: 96.0 mg/kg/injection, schedule: Q01DX Z (ip), vehicle: carboxymethylcellulose (CMC)
  T/C: 90 % of control

## CN(N=O)C(=O)C(=O)N(C)N=O
endpoint: mean survival time, dose: 15.0 mg/kg/injection, schedule: Q01DX Z (ip), vehicle: saline
  T/C: 98 % of control
endpoint: mean survival time, dose: 30.0 mg/kg/injection, schedule: Q01DX Z (ip), vehicle: saline
  T/C: 97 % of control
endpoint: mean survival time, dose: 60.0 mg/kg/injection, schedule: Q01DX Z (ip), vehicle: saline
  T/C: 98 % of control
endpoint: mean survival time, dose: 120.0 mg/kg/injection, schedule: Q01DX Z (ip), vehicle: saline
  T/C: 98 % of control

## CCCCCCCCCCCCCCCC(=O)Nc1ccn(C2OC(CO)C(O)C2O)c(=O)n1 (stereo not drawn)
endpoint: median survival time, dose: 12.5 mg/kg/injection, schedule: Q01DX009 (ip), vehicle: distilled water + Tween-80 + alcohol
  T/C: 214 % of control
endpoint: median survival time, dose: 25.0 mg/kg/injection, schedule: Q01DX009 (ip), vehicle: distilled water + Tween-80 + alcohol
  T/C: 269 % of control

## CC(C)(Cc1ccccc1)NC(=O)N(CCCl)N=O
endpoint: mean survival time, dose: 375.0 mg/kg/injection, schedule: Q01DX001 (ip), vehicle: other
  T/C: 122 % of control
endpoint: mean survival time, dose: 500.0 mg/kg/injection, schedule: Q01DX001 (ip), vehicle: other
  T/C: 114 % of control

## Cc1nc(N)nc(N)c1-c1ccc(Cl)c(Cl)c1
endpoint: mean survival time, dose: 1.08 mg/kg/injection, schedule: Q01DX009 (ip), vehicle: saline
  T/C: 105 % of control
endpoint: mean survival time, dose: 1.8 mg/kg/injection, schedule: Q01DX009 (ip), vehicle: saline
  T/C: 95 % of control
endpoint: mean survival time, dose: 3.0 mg/kg/injection, schedule: Q01DX009 (ip), vehicle: saline
  T/C: 98 % of control
endpoint: mean survival time, dose: 5.0 mg/kg/injection, schedule: Q01DX009 (ip), vehicle: saline
  T/C: 97 % of control
endpoint: mean survival time, dose: 8.4 mg/kg/injection, schedule: Q01DX009 (ip), vehicle: saline
  T/C: 111 % of control
endpoint: mean survival time, dose: 8.4 mg/kg/injection, schedule: Q04DX003 (ip), vehicle: saline
  T/C: 104 % of control
endpoint: mean survival time, dose: 14.0 mg/kg/injection, schedule: Q04DX003 (ip), vehicle: saline
  T/C: 96 % of control
endpoint: mean survival time, dose: 23.0 mg/kg/injection, schedule: Q04DX003 (ip), vehicle: saline
  T/C: 103 % of control
endpoint: mean survival time, dose: 39.0 mg/kg/injection, schedule: Q04DX003 (ip), vehicle: saline
  T/C: 93 % of control
endpoint: mean survival time, dose: 65.0 mg/kg/injection, schedule: Q04DX003 (ip), vehicle: saline
  T/C: 103 % of control
endpoint: median survival time, dose: 0.62 mg/kg/injection, schedule: Q01DX009 (ip), vehicle: saline
  T/C: 106 % of control
endpoint: median survival time, dose: 1.25 mg/kg/injection, schedule: Q01DX009 (ip), vehicle: saline
  T/C: 115 % of control
endpoint: median survival time, dose: 5.0 mg/kg/injection, schedule: Q01DX009 (ip), vehicle: saline
  T/C: 117 % of control
endpoint: median survival time, dose: 10.0 mg/kg/injection, schedule: Q01DX009 (ip), vehicle: saline
  T/C: 104 % of control

## Cc1ncc(CNC(=O)N(CCCl)N=O)c(N)n1
endpoint: mean survival time, dose: 6.25 mg/kg/injection, schedule: Q01DX001 (ip), vehicle: saline
  T/C: 104 % of control
endpoint: mean survival time, dose: 6.25 mg/kg/injection, schedule: Q01DX009 (ip), vehicle: saline
  T/C: 158 % of control
endpoint: mean survival time, dose: 12.5 mg/kg/injection, schedule: Q01DX009 (ip), vehicle: saline
  T/C: 160 % of control
endpoint: mean survival time, dose: 25.0 mg/kg/injection, schedule: Q01DX001 (ip), vehicle: saline
  T/C: 153 % of control
endpoint: mean survival time, dose: 50.0 mg/kg/injection, schedule: Q01DX001 (ip), vehicle: saline
  T/C: 153 % of control
endpoint: mean survival time, dose: 100.0 mg/kg/injection, schedule: Q01DX001 (ip), vehicle: saline
  T/C: 104 % of control

## CS(=O)(=O)OCCCCOS(C)(=O)=O
endpoint: mean survival time, dose: 27.0 mg/kg/injection, schedule: Q01DX001 (ip), vehicle: carboxymethylcellulose (CMC)
  T/C: 95 % of control
endpoint: mean survival time, dose: 41.0 mg/kg/injection, schedule: Q01DX001 (ip), vehicle: carboxymethylcellulose (CMC)
  T/C: 93 % of control
endpoint: mean survival time, dose: 61.0 mg/kg/injection, schedule: Q01DX001 (ip), vehicle: carboxymethylcellulose (CMC)
  T/C: 94 % of control

## OCCN1CCN(CC/C=C2/c3ccccc3Sc3ccc(C(F)(F)F)cc32)CC1
endpoint: mean survival time, dose: 3.12 mg/kg/injection, schedule: Q04DX003 (ip), vehicle: saline
  T/C: 113 % of control
endpoint: mean survival time, dose: 6.25 mg/kg/injection, schedule: Q04DX003 (ip), vehicle: saline
  T/C: 111 % of control
endpoint: mean survival time, dose: 12.5 mg/kg/injection, schedule: Q04DX003 (ip), vehicle: saline
  T/C: 113 % of control
endpoint: mean survival time, dose: 25.0 mg/kg/injection, schedule: Q04DX003 (ip), vehicle: saline
  T/C: 100 % of control
